The source of these data is patent publication US9745322B2, “Compounds for the treatment of hepatitis C” (priority 2013, dated 2017).

The assay deals with HCV pseudoparticles, genotype 1a (H77C) E1 and E2 envelope. In words: HCV pseudoparticle infection assay (luciferase reporter, Huh7 cells). It counts as cell-based, HCV genotype 1a (H77C). Particulars: Hepatitis C virus, Huh-7, 48 h, read-out: EC50 (nM) 1a (H77C), HCV pseudoparticles genotype 1a H77C, Huh7 cells, luciferase 2 days after infection. Background: Reporter assays use an easily measured gene product as a stand-in for the process of interest.

Read-outs that look alike come from different tables or passages of the source.

As usually defined, the EC50 is the concentration giving half of the maximal effect. As for `COC(=O)[C@H](CNC(=O)C(=O)N(C)C)NC(=O)c1ccc2cc1OCCCCCCOc1ccc(cc1)CNc1nc(nc(OCC(F)(F)F)n1)N2` [Example 1001], the EC50 by setting is: (class symbol) 0.1 to 100 nM; (numeric value) 0.624 nM.

On to `CNC(=O)C(=O)NC[C@H](NC(=O)c1ccc2cc1OCCCCCCOc1ccc(cc1)CNc1nc(nc(OCC(F)(F)F)n1)N2)C(=O)OC` [Example 1002], for which the 50% effective concentration (EC50) (class symbol) lay within 0.1 to 100 nM.

Regarding `COC(=O)[C@H](CNC(=O)C(N)=O)NC(=O)c1ccc2cc1OCCCCCCOc1ccc(cc1)CNc1nc(nc(OCC(F)(F)F)n1)N2` [Example 1003], the EC50 (class symbol) lay in the range of 0.1 to 100 nM.

For `CN(C)C(=O)C(=O)NC[C@H](NC(=O)c1ccc2cc1OCCCCCCOc1ccc(cc1)CNc1nc(nc(OCC(F)(F)F)n1)N2)C(=O)O` [Example 1004], under “class symbol”, the concentration giving a half-maximal response (EC50) was 0.1 to 100 nM.

As to `CNC(=O)C(=O)NC[C@H](NC(=O)c1ccc2cc1OCCCCCCOc1ccc(cc1)CNc1nc(nc(OCC(F)(F)F)n1)N2)C(=O)O` [Example 1005], the EC50 (class symbol) was in the range of 0.1 to 100 nM and the EC50 (numeric value) is 2.47 nM.
